Results reported in patent US10745352B2, “Dual function molecules for histone deacetylase inhibition and ataxia telangiectasia mutated activation and methods of use thereof” (Shuttle Pharmaceuticals, Inc., priority 2015, dated 2020).

What was measured:
[1] = tested on: normal prostate epithelial (RWPE1) cells vs prostate cancer (PC3) cells; assay: MTT cytotoxicity assay, normal prostate epithelial cells versus prostate cancer cells; assay type: cell-based
Description: Certain compounds of the invention were tested in an MTT cytotoxicity assay against a breast cancer cell line (MCF7), prostate cancer cell line (PC3), cervical cancer cell line (CasKi), and head and neck cancer cell line (SQ20B). In the breast and prostate cancer MTT assays, certain compounds of the invention were also tested against normal breast (MCF10A) and prostate (RWPE1) epithelial tissues.
Specifically, the compounds tested included SP-1-161, SP-1-229, and SP-1-303. Suberoylanilide hydroxamic acid (SAHA), a known HDAC inhibitor, was also tested in the assay as control.

[2] = tested on: HPV+ CasKi cells vs normal epithelial cells (RWPE1 cells); assay: MTT cytotoxicity assay, normal epithelial cells versus HPV+ cervical cancer cells; assay type: cell-based, human
Description: SP-1-161 was tested in a MTT cytotoxicity assay against normal epithelial cells and human papilloma virus positive (HPV+) cancerous (CasKi) cervical cells. […] This supports the role for the compounds of the invention (e.g., SP-1-161) as treatments of HPV+ cancers and tumors.

[3] = tested on: cervical cancer cells (CasKi); assay: Radiation clonogenic survival, cervical cancer cells; assay type: cell-based
Description: Logarithmically growing cells were seeded into T-25 flasks at various densities to yield approximately 50-100 colonies/flask. After incubation for 24 h at 37° C., cells were treated or not with the compound at the IC50 concentration for 24 h followed by sham or irradiation at room temperature using a Mark-30 irradiator with a 137-Cs source at a fixed dose rate of 2.27 Gy/min. After 10-14 days, cells were fixed and stained with crystal violet, and colonies of more than 50 cells were counted. The surviving fractions of the treated cells were normalized to the plating efficiencies of untreated controls. Radiation survival curves were fitted by computer to the single-hit, multitarget and the linear-quadratic models.
FIGS. 17-19 illustrate the effects of drugs on radiation cologenetic survivals. Cells were pretreated with drug 24 hours prior to exposure to graded doses of gamma radiation. Compounds SP-1-161 and SP-1-303 were tested in a clonogenic survival study with cervical cancer cells (CasKi) with a protocol similar to that described in Example 12. The radiation sensitivity of cells is defined by the terminal slope of the radiation survival curve, which is referred to as D0. The steeper the slope, the smaller the value of D0 and thus the more radiation sensitive the respective cells. Alternatively, a less steep slope results in a larger D0 and a more resistant radiation response. […]

pan-HDACs = assay: Pan-HDAC assay (Fluor-de-Lys fluorometric kit, HeLa Nuclear Extract); assay type: biochemical; settings: values are average EC50, read-out: EC50 against pan-HDACs
Description: Certain compounds of the invention were tested in a pan-HDAC assay to determine the ability of such compounds to inhibit HDAC protein. Specifically, the compounds tested included: N-(6-(hydroxyamino)-6-oxohexyl)-3-methyl-1H-indole-2-carboxamide (SP-1-161) (FIG. 8A); N^1-hydroxy-N^6-(2-(2-methyl-1H-indol-3-yl)ethyl)octanediamide (SP-1-163) (FIG. 8A); (S)—N-(6-(hydroxyamino)-6-oxohexyl)-1-tosylindoline-2-carboxamide (SP-1-169) (FIG. 8B); and (S)-1-((5-(dimethylamino)naphthalene-1-yl)sulfonyl)-N-(6-(hydroxyamino)-6-oxoheyl)indoline-carboxamide (SP-1-171) (FIG. 8B).
The Pan HDAC assay was performed as follows:
Materials: Enzo Fluor-de-Lys HDAC fluorometric activity assay kit; 360 nm excitation 460 nm emission Plate Reader; Disposable pipettes; Pipet-aid; Pipette tips; Micro-pipetter; DMSO; Sterile micro-tubes and conical tubes; and Micro-centrifuge.
Test compounds and control preparation: All test compounds' stock solutions were made in 100% DMSO. Test compound dilutions were made in HDAC Assay buffer with a final concentration of DMSO less than or equal to 1%. Vehicle control was HDAC Assay buffer with 1% DMSO.
The reagents for the assay were prepared as follows:
1. All kit components were defrosted and these, and all dilutions described below, were kept on ice until use. All undiluted kit components are stable for several hours on ice.
2. A sufficient amount of HeLa Nuclear Extract (BML-KI140) or other HDAC source diluted in Assay Buffer (BML-KI143) was prepared to provide for the assays that were performed (# of wells×15 μl). A 30-fold dilution of the HeLa Extract means that 15 μl contains 0.5 μl of the undiluted Extract, an appropriate amount to use per well.
3. Dilution(s) of Trichostatin A and/or Test Inhibitors were prepared in Assay Buffer (BML-KI143). Since 10 μl were used per well, and since the final volume of the HDAC reaction was 50 μl, these inhibitor dilutions were 5× their final concentration.
4. Dilution(s) of the Fluor de Lys® Substrate (BML-KI104; 50 mM) were prepared in Assay Buffer (BML-KI143) that were 2× the desired final concentration(s). For inhibitor screening, substrate concentrations at or below the Km are recommended. Twenty-five μL were used per well. Initial dilutions of 25-fold or greater in Assay Buffer (2.0 mM or less) yielded stable solutions (see NOTE on freezing and thawing below). Rapid mixing and dilution into room temperature buffer helped to prevent precipitation at high substrate concentration. NOTE: Freezing/thawing of Fluor de Lys® Substrate solutions in Assay Buffer may cause precipitation of the Substrate. Dilute only amount necessary for one day's experiment.
5. Shortly before use (<30 min.), sufficient Fluor de Lys® Developer was prepared for the assays to be performed (50 μl per well). […]

Compound: Cc1c(C(=O)NCCCCCC(=O)NO)[nH]c2ccccc12 [SP-1-161, N-(6-(hydroxyamino)-6-oxohexyl)-3-methyl-1H-indole-2-carboxamide]
- fold less toxic in normal prostate epithelial (RWPE1) cells than in prostate cancer (PC3) cells [1]: 15 fold
- IC50 for HPV+ CasKi cells, times lower than that for normal epithelial cells (RWPE1 cells) [2]: 29 times
- D0 (terminal slope of the radiation survival curve) ([3]; CasKi cells pretreated with drug 24 hours before graded doses of gamma radiation, DMSO control D0=2.4): 1.6
- radiation sensitization of CasKi cells (decrease of D0 with respect to control) ([3]; CasKi cells, drug 24 hours before gamma radiation): sensitized CasKi cells
- EC50 (pan-HDACs): 29.7 nM
